{"source": "patent US20050032904A1", "about": "“Composition and use of allylamine derivatives” (priority 2003, published 2005)", "key": {"COLO 205": {"tested_on": "COLO 205", "assay": "Determination of cell growth curve (cell counting)", "type": "cell-based, human", "experimental": "The effect of TB on the growth of various human cancer cells […]. In FIG. 1, (A) COLO205, (B) HT29, (C) HepG2, (D) Hep3B, (E) HL60, and (F) normal human fibroblast cells were treated with various concentrations of TB (30 to 120 μM). Media with or without TB were renewed daily until cell counting. Three samples were analyzed in each group. Values represent mean±S.E. The cells were cultured for 5 days with or without TB (30-120 μM), and then the cells were harvested and counted. […] The COLO 205 cells were released from quiescence by incubation in culture media supplemented with 10% FCS and 0.05% DMSO without or with 90 μM TB for 24 h. After 24 h treatment with TB, the cells were washed twice with PBS, replaced with fresh 10% FCS without DMSO or TB. […] The cultured cell numbers in DMSO- and TB-treated group were counted every day. Three samples were analyzed in each group, and values represent the mean±S.E. Human colon cancer, hepatoma, leukemia, and human normal fibroblast cells at a density of 1×10^4 were plated in 35-mm Petri dishes. TB was added at the indicated doses in 0.05% dimethyl-sulfoxide (DMSO). For control specimens, the same volume of the 0.05% DMSO without TB was added. Media with and without TB were changed daily until cell counting"}, "HL60": {"tested_on": "HL60", "assay": "Determination of cell growth curve (cell counting)", "type": "cell-based, human", "conditions": "5 days", "experimental": "(§1) The effect of TB on the growth of various human cancer cells […]. In FIG. 1, (A) COLO205, (B) HT29, (C) HepG2, (D) Hep3B, (E) HL60, and (F) normal human fibroblast cells were treated with various concentrations of TB (30 to 120 μM). Media with or without TB were renewed daily until cell counting. Three samples were analyzed in each group. Values represent mean±S.E. The cells were cultured for 5 days with or without TB (30-120 μM), and then the cells were harvested and counted. […] Human colon cancer, hepatoma, leukemia, and human normal fibroblast cells at a density of 1×10^4 were plated in 35-mm Petri dishes. TB was added at the indicated doses in 0.05% dimethyl-sulfoxide (DMSO). For control specimens, the same volume of the 0.05% DMSO without TB was added. Media with and without TB were changed daily until cell counting"}, "HT29": {"tested_on": "HT29", "assay": "Determination of cell growth curve (cell counting)", "type": "cell-based, human", "conditions": "5 days", "experimental": "as §1"}, "Hep3B": {"tested_on": "Hep3B", "assay": "Determination of cell growth curve (cell counting)", "type": "cell-based, human", "conditions": "5 days", "experimental": "as §1"}, "HepG2": {"tested_on": "HepG2", "assay": "Determination of cell growth curve (cell counting)", "type": "cell-based, human", "conditions": "5 days", "experimental": "as §1"}, "[1]": {"tested_on": "human gingival fibroblasts", "assay": "Determination of cell growth curve (cell counting)", "type": "cell-based", "conditions": "5 days", "experimental": "The effect of TB on the growth of various human cancer cells wasexamined. In FIG. 1, (A) COLO205, (B) HT29, (C) HepG2, (D) Hep3B, (E) HL60, and (F) normal human fibroblast cells were treated with various concentrations of TB (30 to 120 μM). Media with or without TB were renewed daily until cell counting. Three samples were analyzed in each group. Values represent mean±S.E. The cells were cultured for 5 days with or without TB (30-120 μM), and then the cells were harvested and counted. […] However, when TB concentration was increased to 120 μM, a 50% growth inhibition was observed.\nHuman colon cancer, hepatoma, leukemia, and human normal fibroblast cells at a density of 1×10^4 were plated in 35-mm Petri dishes. TB was added at the indicated doses in 0.05% dimethyl-sulfoxide (DMSO). For control specimens, the same volume of the 0.05% DMSO without TB was added. Media with and without TB were changed daily until cell counting"}, "HT 29 cells": {"tested_on": "HT 29 cells", "assay": "Flow cytometry (FACS) cell cycle analysis", "type": "cell-based, human"}, "[2]": {"tested_on": "COLO 205 tumor xenografts", "assay": "Treatment of COLO 205-derived xenografts in vivo", "set-up": "species or system nude mouse", "experimental": "Genomic DNAs extracted from TB-treated COLO 205 were examined by gel electrophoresis. […] DNA fragmentation was examined at 24 h after drug treatment. In the lanes 2 and 8, cells received mock treatment as controls. […] Comparisons were subjected to ANOVA followed by Fisher's least significant difference test. […] Since, retardation of the cell cycle and/or activation of the cellular apoptotic response are two major mechanisms preventing tumor growth, we examined the TB effect on the cell cycle and apoptosis occurrence of the solid tumor derived from the implanted COLO 205. The COLO-205 cells (5×10^6) in 0.1 ml RPMI 1640 were injected subcutaneously between the scapulae of each nude mouse (purchased from National Science Council animal center, Taipei). […]"}, "COLO 205 tumor tissues": {"tested_on": "COLO 205 tumor tissues", "assay": "DNA fragmentation analysis / TdT nick end labeling in tumor tissues", "type": "in vivo, nude mouse", "conditions": "tumor from TB-treated mouse, 6 weeks"}, "[3]": {"conditions": "cited from earlier work"}, "[4]": {"conditions": "TB 30-120 μM, media renewed daily, dose-dependent"}, "[5]": {"conditions": "TB concentration increased to 60 μM"}, "[6]": {"conditions": "daily oral 250 mg TB for 4 weeks, human study"}}}
{"smiles": "CN(C/C=C/C#CC(C)(C)C)Cc1cccc2ccccc12", "note": "[TB, 1-Naphthalenemethanamine, N-(6,6-dimethyl-2-hepten-4-ynyl)-N-methyl-, (E)-]", "values": [{"measurement": "duration of inhibition of cell proliferation after removal of TB", "setting": "COLO 205; 90 μM TB for 24 h, then removed", "value": "at least 7 days"}, {"measurement": "reversibility of TB-induced inhibition of cell proliferation", "setting": "COLO 205; 90 μM TB for 24 h, then washed and replaced with fresh 10% FCS", "value": "not reversed by removal of TB"}, {"measurement": "cell number", "setting": "COLO 205; TB 30-120 μM, 5 days, media renewed daily, dose-dependent", "value": "decreased cell number"}, {"measurement": "cell growth at TB 60 μM", "setting": "COLO 205; TB concentration increased to 60 μM, 5 days", "value": "cell growth arrest or cell death"}, {"measurement": "cell number", "setting": "HL60; [4]", "value": "decreased cell number"}, {"measurement": "cell growth at TB 60 μM", "setting": "HL60; [5]", "value": "cell growth arrest or cell death"}, {"measurement": "cell number", "setting": "HT29; [4]", "value": "decreased cell number"}, {"measurement": "cell growth at TB 60 μM", "setting": "HT29; [5]", "value": "cell growth arrest or cell death"}, {"measurement": "cell number", "setting": "Hep3B; [4]", "value": "decreased cell number"}, {"measurement": "cell growth at TB 60 μM", "setting": "Hep3B; [5]", "value": "cell growth arrest or cell death"}, {"measurement": "cell number", "setting": "HepG2; [4]", "value": "decreased cell number"}, {"measurement": "cell growth at TB 60 μM", "setting": "HepG2; [5]", "value": "cell growth arrest or cell death"}, {"measurement": "inhibition at 120 µM", "setting": "[1]; Homo sapiens, Fibroblast, 120 h, TB 120 μM, medium changed daily, read-out: growth inhibition (reduction of cell count)", "value": 50, "unit": "%"}, {"measurement": "growth rate", "setting": "[1]; TB 30-60 μM", "value": "did not inhibit the growth rate"}, {"measurement": "accumulation of cells at the G0/G1 phase", "setting": "HT 29 cells; 90 μM TB after release from quiescence", "value": "> 90", "unit": "%"}, {"measurement": "G0/G1 arrest, dose effect", "setting": "HT 29 cells; various concentrations of TB, 15 h after release from quiescence, dose-dependent", "value": "induced G0/G1 arrest"}, {"measurement": "cytotoxicity for the vital organs", "setting": "[2]; 50 mg/Kg body weight", "value": "not cytotoxic for the vital organs"}, {"measurement": "tumor volume vs. vehicle (DMSO plus peanut oil)", "setting": "[2]; TB 50 mg/kg, ND 5 mg/kg, intraperitoneal, 3 times per week for 6 weeks", "value": "reduction in tumor volume"}, {"measurement": "tumor size of the COLO 205 tumor mass", "setting": "[2]; intraperitoneal TB 50 mg/kg", "value": "substantial decline in tumor size"}, {"measurement": "apoptosis in COLO 205 tumor (nick end labeling, DNA fragmentation)", "setting": "COLO 205 tumor tissues", "value": "Induction of apoptosis"}, {"measurement": "fraction of TB absorbed", "setting": "[3]; after an oral dose (250 mg)", "value": "approximately 70%"}, {"measurement": "maximum plasma concentrations", "setting": "[3]; after an oral dose (250 mg)", "value": "0.5 to 1.5", "unit": "µg/mL"}, {"measurement": "time to reach maximum plasma concentrations", "setting": "[3]; after an oral dose (250 mg)", "value": "≤ 2", "unit": "h"}, {"measurement": "plasma level of TB", "setting": "[3]; [6]", "value": "1700 ± 770", "unit": "ng/mL"}, {"measurement": "plasma level of TB (molar)", "setting": "[3]; [6]", "value": 5.83, "unit": "µM"}]}
